Earlier results, collected in patent US11395798B2, “O/W type emulsion” (NOF CORPORATION, priority 2015, dated 2022).

Conditions: water/octanol; cited from earlier work

Row | Molecule | Log Pow
1 | CCCCCCCCCCCCCCCC(=O)Oc1ccc2c(C)cc(=O)oc2c1 [4-methylumbelliferone palmitate] | 7.92
2 | COc1ccc2c(c1)c(CC(=O)OCC(=O)O)c(C)n2C(=O)c1ccc(Cl)cc1 [acemetacin] | 4.49
3 | CCC(=O)OCC(=O)[C@@]1(OC(=O)CC)[C@@H](C)C[C@H]2[C@@H]3CCC4=CC(=O)C=C[C@]4(C)[C@@]3(Cl)[C@@H](O)C[C@@]21C [beclopetasone propionate] | 4.07
4 | COC(=O)C1=C(C)NC(C)=C(C(=O)OC2CCCN(Cc3ccccc3)C2)C1c1cccc([N+](=O)[O-])c1 (centres unmarked) [benidipine] | 5.56
5 | CCc1oc2ccccc2c1C(=O)c1cc(Br)c(O)c(Br)c1 [benzbromarone] | 6.65
6 | CCCCC(=O)O[C@]1(C(=O)CO)[C@@H](C)C[C@H]2[C@@H]3CCC4=CC(=O)C=C[C@]4(C)[C@@]3(F)[C@@H](O)C[C@@]21C [betamethasone valerate] | 4.14
7 | c1ccc(-c2ccc(C(c3ccccc3)n3ccnc3)cc2)cc1 (centres unmarked) [bifonazole] | 4.69
8 | CCOc1nc2cccc(C(=O)OC(C)OC(=O)OC3CCCCC3)c2n1Cc1ccc(-c2ccccc2-c2nnn[nH]2)cc1 (centres unmarked) [candesartancilexetil] | 7.21
9 | COc1ccccc1OCCNCC(O)COc1cccc2[nH]c3ccccc3c12 (centres unmarked) [carvedilol] | 4.07
10 | CCCCCCCCCCCCCCCC(=O)OC[C@@H](NC(=O)C(Cl)Cl)[C@H](O)c1ccc([N+](=O)[O-])cc1 [chloramphenicol palmitate] | 8.69
11 | [H]/N=C(\N/C(=N/[H])NCCCCCCNC(=N)NC(=N)Nc1ccc(Cl)cc1)Nc1ccc(Cl)cc1 [chlorhexidine] | 4.58
12 | C=C1CC[C@H](O)C/C1=C/C=C1\CCC[C@]2(C)[C@@H]([C@H](C)CCCC(C)C)CC[C@@H]12 [cholecalciferol] | 9.08
13 | CCC(C)(Oc1ccc(C2(c3ccc(OC(C)(CC)C(=O)O)cc3)CCCCC2)cc1)C(=O)O (centres unmarked) [clinofibrate] | 6.33
14 | Clc1ccccc1C(c1ccccc1)(c1ccccc1)n1ccnc1 [clotrimazole] | 4.93
15 | C#C[C@]1(O)CC[C@H]2[C@@H]3CCC4=Cc5oncc5C[C@]4(C)[C@H]3CC[C@@]21C [danazol] | 4.94
16 | CC(C)(C)c1ccc(C(=O)CCCN2CCC(OC(c3ccccc3)c3ccccc3)CC2)cc1 [ebastine] | 6.81
17 | C=C1CC[C@H](O)C/C1=C/C=C1\CCC[C@]2(C)[C@@H]([C@H](C)/C=C/[C@H](C)C(C)C)CC[C@@H]12 [ergocalciferol] | 9.15
18 | C[C@]12CC[C@@H]3c4ccc(OC(=O)c5ccccc5)cc4CC[C@H]3[C@@H]1CC[C@@H]2O [estradiol benzoate] | 5.10
19 | C#C[C@]1(O)CC[C@H]2[C@@H]3CCc4cc(O)ccc4[C@H]3CC[C@@]21C [ethinylestradiol] | 4.11
20 | CCCCCCC(=O)OCCN1CCN(CCCN2c3ccccc3Sc3ccc(C(F)(F)F)cc32)CC1 [fluphenazine enanthate] | 7.29
21 | COc1ccc2c(c1)c(CC(=O)O)c(C)n2C(=O)c1ccc(Cl)cc1 [indomethacin] | 4.25
22 | O=C(COCCOCCOCC(=O)Nc1c(I)cc(I)c(C(=O)O)c1I)Nc1c(I)cc(I)c(C(=O)O)c1I [iotroxatic acid] | 4.32

Row | Molecule | Log Pow
23 | CC(C)Oc1ccc2c(=O)c(-c3ccccc3)coc2c1 [ipriflavone] | 4.25
24 | CCC(C)n1ncn(-c2ccc(N3CCN(c4ccc(OCC5COC(Cn6cncn6)(c6ccc(Cl)cc6Cl)O5)cc4)CC3)cc2)c1=O (centres unmarked) [itraconazole] | 5.00
25 | Cc1cccc(Nc2ccccc2C(=O)O)c1C [mefenamic acid] | 4.83
26 | CC(C)=CCC/C(C)=C/CC/C(C)=C/CC/C(C)=C/CC1=C(C)C(=O)c2ccccc2C1=O [menatetrenone] | 8.79
27 | COC1(O[C@H]2CC[C@H]3[C@@H]4CC[C@H]5C[C@@H]6S[C@@H]6C[C@]5(C)[C@H]4CC[C@]23C)CCCC1 [mepitiostane] | 6.89
28 | c1ccc2c(c1)Sc1ccccc1N2CC1CN2CCC1CC2 (centres unmarked) [mequitazine] | 5.20
29 | C#C[C@]1(O)CC[C@H]2[C@@H]3CCc4cc(OC)ccc4[C@H]3CC[C@@]21C [mestranol] | 4.94
30 | CCC(=O)O[C@@H]1CC(=O)O[C@H](C)C/C=C/C=C/[C@H](OC(C)=O)[C@H](C)C[C@H](CC=O)[C@H](O[C@@H]2O[C@H](C)[C@@H](O[C@H]3C[C@@](C)(OC(C)=O)[C@@H](OC(=O)CC)[C@H](C)O3)[C@H](N(C)C)[C@H]2O)[C@H]1OC [midecamycin acetate] | 5.58
31 | CC(C)=CCN1CCC2(C)c3cc(O)ccc3CC1C2C (centres unmarked) [pentazocine] | 4.15
32 | CC1=C(C/C=C(\C)CCC[C@H](C)CCC[C@H](C)CCCC(C)C)C(=O)c2ccccc2C1=O [phytonadione] | 10.31
33 | O=c1[nH]c2ccccc2n1C1CCN(CCCC(c2ccc(F)cc2)c2ccc(F)cc2)CC1 [pimozide] | 5.76
34 | COC(=O)[C@H]1[C@H]2C[C@@H]3c4[nH]c5cc(OC)ccc5c4CCN3C[C@H]2C[C@@H](OC(=O)c2cc(OC)c(OC)c(OC)c2)[C@@H]1OC [reserpine] | 4.45
35 | CCCCCCCCCCCCCCCC(=O)OC/C=C(C)/C=C/C=C(C)/C=C/C1=C(C)CCCC1(C)C [retinol palmitate] | 14.32
36 | CCCC(=O)OC[C@@H](OC(=O)CCC)[C@@H](OC(=O)CCC)[C@H](Cn1c2nc(=O)[nH]c(=O)c-2nc2cc(C)c(C)cc21)OC(=O)CCC [riboflavin butyrate] | 6.25
37 | Cc1cc(O)c2c(c1)O[C@@]1(C)CC[C@H]3C(C)(C)CCC[C@]34CO[C@@H]2[C@H]41 [siccanin] | 6.10
38 | C=CC[C@@H]1/C=C(\C)C[C@H](C)C[C@H](OC)[C@H]2O[C@@](O)(C(=O)C(=O)N3CCCC[C@H]3C(=O)O[C@H](/C(C)=C/[C@@H]3CC[C@@H](O)[C@H](OC)C3)[C@H](C)[C@@H](O)CC1=O)[C@H](C)C[C@@H]2OC [tacrolimus] | 4.79
39 | CC(=O)Oc1c(C)c(C)c2c(c1C)CCC(C)(CCC[C@H](C)CCC[C@H](C)CCCC(C)C)O2 (some centres unmarked) [tocopheryl acetate] | 10.69
40 | Cc1cccc(N(C)C(=S)Oc2ccc3ccccc3c2)c1 [tolnaftate] | 5.14
41 | COC1=C(OC)C(=O)C(C/C=C(\C)CC/C=C(\C)CC/C=C(\C)CC/C=C(\C)CC/C=C(\C)CC/C=C(\C)CC/C=C(\C)CC/C=C(\C)CC/C=C(\C)CCC=C(C)C)=C(C)C1=O [ubidecarenone] | 19.12
42 | C[C@H](CCC(=O)O)[C@H]1CC[C@H]2[C@@H]3[C@@H](O)C[C@@H]4C[C@H](O)CC[C@]4(C)[C@H]3CC[C@]12C [ursodeoxycholic acid] | 4.76
43 | CC(C(=O)O)c1ccc2c(c1)CC(=O)c1ccccc1S2 (centres unmarked) [zaltoprofen] | 4.25
44 | retinol acetate | 7.19
